Assays:
[1] = Particle size distribution test, laser particle size analyzer, dry dispersion; format: physicochemical
Description: The particle size distribution of DPI dry powder was measured by dry dispersion method using laser particle size analyzer, and Dv10, Dv50, Dv90, VMD (Volume median diameter) and SMD (Sauter mean diameter) were determined, respectively.

[2] = In vivo pharmacokinetics, plasma (UPLC-MS/MS); parameters: species or system rat; conditions: for half-life: read-out: HLz (biological half-life) (converted); for MRT last: read-out: MRTlast (mean retention time); for concentration at 2 min / concentration at 10 min / concentration at 15 min / concentration at 30 min / concentration at 60 min / concentration at 120 min / concentration at 240 min / concentration at 360 min / concentration at 4 min: read-out: Blood concentration of BA; for concentration at 4 min: Sprague-Dawley (SD)
Description: (§1) SPF-grade healthy SD male rats, body weight 180-220 g, purchased from SPF (Beijing) Biotechnology Co., Ltd (Certificate No. SCXK (Beijing) 2019-0010), were conventionally reared under (23±2)° C., humidity: (50±10)%. This study was conducted with the approval of the Animal Experiment Center of Tianjin University of Traditional Chinese Medicine.
(§2) 108 SPF-grade SD male rats were randomly divided into tail intravenous injection group and pulmonary administration group, with 9 time points of 2 min, 4 min, 10 min, 15 min, 30 min, 1 h, 2 h, 4 h and 6 h per group, 6 rats per time point per group. The rats were fasted for 12 h before the experiment, with water provided. The rats were weighed (to calculate the dose) and numbered, and both groups were intraperitoneally injected with 10% chloral hydrate at a dose of 2 mL/kg. Group 1 was administered BA/AH-DPI saline solution by tail intravenous injection at a dose of 9 mg/kg. Group 2 was administered 3 mg of BA/AH-DPI fine powder at the same dose by spray administration with a DP-4 tracheal insufflator (1.5 mL of air was pushed each time, 3-4 times consecutively). Blood was sampled from the abdominal aorta of the rats in both groups at the above time points after drug administration, and the rats were executed. The obtained whole blood was placed in a centrifuge tube with sodium heparin, centrifuged at 4000 r/min for 10 min, and the upper layer of plasma was separated and stored a refrigerator at −80° C. After blood collection, the thoracic cavity was quickly opened and the lungs of the rats were isolated. The small amount of floating blood on the surface of the lung tissue was washed with saline in an ice bath. The surface of the lung tissue was blotted with filter paper. The trachea was cut off, wrapped in tin foil and placed in a 10 mL centrifuge tube. The lung was weighed precisely, and stored in a refrigerator at −80° C.
(§3) 100 μL of the plasma sample or lung tissue supernatant was precisely absorbed, and 200 μL (100 ng/mL) of methanol solution containing the internal standard was added. The mixture was vortexed and mixed for 3 min, and centrifuged at 12000 r/min for 10 min to obtain the supernatant as the finished sample. The contents of BA and AH were determined by UPLC-MS/MS method.
(§4) Electrospray ion source (ESI source); scan mode: positive (ESI+) detection; detection mode: multi-reactive ion monitoring (MRM). Electrospray voltage: 4 kV; atomization gas: N2; spray gas flow rate (Gas1): 15 psi; ion source temperature: 300° C.
(§5) Meaning of pharmacokinetic parameters: HLz was the biological half-life, i.e., the time required for the amount or blood concentration of the drug in the body to decrease by half; Tmax was the time to peak, i.e., the time required to reach the peak concentration of the drug after administration. Cmax was the peak drug concentration, i.e., the highest blood concentration that occurred after administration of the drug. AUC was the area enclosed by the blood drug concentration curve against the time axis. Vz/F was the apparent volume of distribution, the ratio constant of the amount of drug in the body to the blood concentration when the drug reached dynamic equilibrium in the body. CL/F was the clearance, i.e., the number of apparent volume of distribution of the drug removed from the body per unit time. AUMC was the first order moment of the drug-time curve, i.e. the area under the curse of the product of time and blood concentration versus time. MRTlast was the mean retention time, i.e., the average of the residence time of drug molecules in the body.

[3] = In vivo pharmacokinetics, lung tissue homogenate (UPLC-MS/MS); parameters: species or system rat; conditions: for CL/F (clearance) / Cmax / Tmax / half-life / MRT last: BA in rat lung tissue; for concentration at 2 min / concentration at 4 min / concentration at 10 min / concentration at 15 min / concentration at 30 min / concentration at 60 min / concentration at 120 min / concentration at 240 min / concentration at 360 min / Cmax / Tmax / half-life / MRT last: male, Sprague-Dawley (SD); for concentration at 2 min / concentration at 4 min / concentration at 10 min / concentration at 15 min / concentration at 30 min / concentration at 60 min / concentration at 120 min / concentration at 240 min / concentration at 360 min: rat lung tissue homogenate, read-out: Drug concentration of BA in lung tissue; for Cmax / Tmax / half-life / MRT last: lung tissue (homogenate supernatant); for half-life: read-out: HLz (biological half-life) (converted); for MRT last: read-out: MRTlast (mean retention time)
Description: as §1, §2
The lung tissues were added to saline in a weight to volume ratio of 1:4 (g:mL). A homogenate was obtained by beating, dispersing and evenly grinding with a homogenizer under an ice water bath, and centrifuged at 6500 r/min for 20 min to obtain the supernatant of the lung tissue homogenate.
as §3, §4, §5

[4] = male, SD, inhaled or intranasal, BA in rat plasma, pulmonary administration group, BA/AH-DPI 9 mg/kg
[5] = male, SD, inhaled, rat plasma, pulmonary administration BA/AH-DPI 9 mg/kg
[6] = male, SD, BA in rat plasma, tail intravenous injection group, 9 mg/kg
[7] = male, SD, rat plasma, tail intravenous injection BA/AH-DPI saline solution 9 mg/kg
[8] = tail intravenous injection group, 9 mg/kg
[9] = inhaled, pulmonary administration BA/AH-DPI 9 mg/kg
[10] = inhaled or intranasal, pulmonary administration group, BA/AH-DPI 9 mg/kg
[11] = tail intravenous injection BA/AH-DPI saline solution 9 mg/kg

O=C(O)[C@H]1O[C@@H](Oc2cc3oc(-c4ccccc4)cc(=O)c3c(O)c2O)[C@H](O)[C@@H](O)[C@@H]1O [BA, baicalin]
D10 [1]: 0.88 μm
D50 [1]: 5.18 μm
D90 [1]: 12.61 μm
SMD (Sauter mean diameter) [1]: 2.23 μm
VMD (Volume median diameter) [1]: 6.05 μm
<3 μm ([1]; fraction of particles): 31.81%
<5 μm ([1]; fraction of particles): 48.66%
CL/F (clearance) ([2]; BA in rat plasma, tail intravenous injection group, 9 mg/kg): 98.4805 ± 62.0535 mL/min/kg
Cmax [2, 4]: 2560 ± 351 ng/mL
Tmax [2, 4]: 9 ± 4.2 min
CL/F ([2]; male, SD, inhaled or intranasal, BA in rat plasma, pulmonary administration group, BA/AH-DPI 9 mg/kg, read-out: CL/F (clearance) (converted)): 121 mL/min/kg
half-life [2, 4]: 121 ± 38.4 min
MRT last [2, 4]: 45 ± 5.52 min
Vd/F ([2]; male, SD, inhaled or intranasal, BA in rat plasma, pulmonary administration group, BA/AH-DPI 9 mg/kg, read-out: Vz/F (apparent volume of distribution)): 20.9 ± 6.57 L/kg
bioavailability ([2]; male, SD, inhaled, rat plasma, pulmonary administration of BA/AH-DPI vs tail intravenous injection, 9 mg/kg, read-out: Absolute bioavailability): 60.7%
concentration at 2 min [2, 5]: 690 ± 438 ng/mL
concentration at 10 min [2, 5]: 2320 ± 421 ng/mL
concentration at 15 min [2, 5]: 1470 ± 588 ng/mL
concentration at 30 min [2, 5]: 628 ± 95.9 ng/mL
concentration at 60 min [2, 5]: 289 ± 110 ng/mL
concentration at 120 min [2, 5]: 57.2 ± 14.2 ng/mL
concentration at 240 min [2, 5]: 27.4 ± 10.9 ng/mL
concentration at 360 min [2, 5]: 13.4 ± 3.68 ng/mL
Cmax [2, 6]: 11800 ± 6050 ng/mL
Tmax [2, 6]: 2.28 ± 0.6 min
half-life [2, 6]: 48.6 ± 36 min
MRT last [2, 6]: 14.4 ± 9.6 min
concentration at 2 min [2, 7]: 11700 ± 6170 ng/mL
concentration at 10 min [2, 7]: 933 ± 401 ng/mL
concentration at 15 min [2, 7]: 693 ± 284 ng/mL
concentration at 30 min [2, 7]: 338 ± 70.3 ng/mL
concentration at 60 min [2, 7]: 77 ± 46.1 ng/mL
concentration at 120 min [2, 7]: 53.7 ± 54.2 ng/mL
concentration at 240 min [2, 7]: 8.68 ± 8.46 ng/mL
concentration at 360 min [2, 7]: 2.64 ± 5.27 ng/mL
concentration at 4 min ([2]; male, inhaled, rat plasma, pulmonary administration BA/AH-DPI 9 mg/kg): 1740 ± 962 ng/mL
concentration at 4 min ([2]; male, rat plasma, tail intravenous injection BA/AH-DPI saline solution 9 mg/kg): 3060 ± 861 ng/mL
Time of maximum blood concentration in plasma ([2]; rat, pulmonary administration of BA/AH-DPI 9 mg/kg): around 9 min
CL/F (clearance) ([3]; pulmonary administration group, BA/AH-DPI 9 mg/kg): 800.14 ± 131.95 g/h/kg
CL/F (clearance) [3, 8]: 29086.90 ± 13876.33 g/h/kg
concentration at 2 min [3, 9]: 6440 ± 1200 ng/mL
concentration at 4 min [3, 9]: 4960 ± 1130 ng/mL
concentration at 10 min [3, 9]: 3190 ± 524 ng/mL
concentration at 15 min [3, 9]: 1820 ± 346 ng/mL
concentration at 30 min [3, 9]: 1420 ± 469 ng/mL
concentration at 60 min [3, 9]: 705 ± 160 ng/mL
concentration at 120 min [3, 9]: 235 ± 76.2 ng/mL
concentration at 240 min [3, 9]: 92.2 ± 25.4 ng/mL
concentration at 360 min [3, 9]: 43.1 ± 16.9 ng/mL
Cmax [3, 10]: 26000 ± 4490 ng/g
Tmax [3, 10]: 2.64 ± 1.08 min
half-life [3, 10]: 84 ± 24 min
MRT last [3, 10]: 57 ± 5.22 min
Cmax [3, 8]: 341 ± 112 ng/g
Tmax [3, 8]: 1.98 min
half-life [3, 8]: 101 ± 44.4 min
MRT last [3, 8]: 91.2 ± 36 min
concentration at 2 min [3, 11]: 85.3 ± 27.9 ng/mL
concentration at 4 min [3, 11]: 42 ± 7.67 ng/mL
concentration at 10 min [3, 11]: 45.1 ± 13.6 ng/mL
concentration at 15 min [3, 11]: 45.8 ± 18.7 ng/mL
concentration at 30 min [3, 11]: 39.2 ± 22 ng/mL
concentration at 60 min [3, 11]: 16.3 ± 19.5 ng/mL
concentration at 120 min [3, 11]: 12.9 ± 10.5 ng/mL
concentration at 240 min [3, 11]: 8.37 ± 6.37 ng/mL
concentration at 360 min [3, 11]: 2.71 ± 3.37 ng/mL

From patent publication US20240115496A1, “A COMPOUND DRY POWDER INHALANT AND USE THEREOF” (TIANJIN UNIVERSITY OF TRADITIONAL CHINESE MEDICINE, priority 2021, published 2024)
